# Assay results taken from patent US20230242654A1, “REAGENTS FOR EXPANDING CELLS EXPRESSING RECOMBINANT RECEPTORS” (Juno Therapeutics, Inc., priority 2017, published 2023).
# Legend:
# anti-BCMA CAR+ T cells [1] = test: Surface markers and proliferation at different T cell:bead ratios with or without lenalidomide; assay type: cell-based, human
# Experimental: In another experiment, approximately 1.5×10^6 CAR+ T cells, prepared as described above, were added to wells of a 12-well plate and were incubated with beads from a 200 μg BCMA-conjugated bead composition at a ratio of CAR+ T cell to BCMA-conjugated bead of 1:0.3, 1:1 or 1:3 (approximately 0.5×10^6, 1.5×10^6, and 4.5×10^6 beads per well, respectively). As controls, 5 μg/mL anti-CD3 antibody was coated to wells (sub-optimal concentration for stimulation) or cells were seeded in the absence of any agent (no stimulation control). Each condition was incubated in the presence or absence of 5 μM lenalidomide. […] […] There also was a slight increase in PD-1 surface expression on CD8+ cells when stimulated with BCMA-conjugated beads at the higher BCMA bead concentration provided at the ratio of 1:3 CAR+ T cells to beads. The results are consistent with a finding that the BCMA concentration present during the incubation can differentially modulate surface marker expression on the CAR+ T cells.
# anti-BCMA CAR T cells [2] = test: Cytokines in culture supernatant 24 hours after addition of BCMA-conjugated beads; assay type: cell-based, human
# Experimental: (§1) Cryofrozen anti-BCMA CAR T cells, produced substantially as described in Example 2 and formulated at a 1:1 ratio of CD4+ and CD8+ T cells, were thawed. Unless otherwise indicated, beads (diameter about 4.5 μm) from a 5 μg/ml or 50 μg/ml BCMA-conjugated bead composition, generated as described in Example 1, were added to the wells at a ratio of T cells to beads of 1:2 in the presence or absence of 5 μM lenalidomide. Cells were incubated up to 14 days and analyzed at various time points for cytokine secretion, cell expansion by flow cytometry for the EGFRt surrogate marker, and for cytolytic activity.
# Twenty four hours after addition of BCMA-conjugated beads, the presence of TNF-α, IFNγ, and IL-2 in culture supernatants was assessed.
# In a further exemplary study, two different anti-BCMA CAR T cell compositions were generated from different donors, each containing T cells expressing the same anti-BCMA CAR. The cells were thawed and incubated with beads (diameter about 4.5 μm) from a 5 μg/mL or 200 μg/mL BCMA-conjugated bead composition generated as described in Example 1. The incubation was carried out at a ratio of T cells to beads of 1:1 in the presence or absence of 1 μM or 5 μM lenalidomide. Twenty four hours after addition of BCMA-conjugated beads, IL-2 production by the anti-BCMA CAR+ T cells was assessed in culture supernatants.
# anti-BCMA CAR+ T cells [3] = test: Cell count and CTV proliferation after BCMA-conjugated bead stimulation; assay type: cell-based, human; details: 5 μM lenalidomide
# Experimental: as §1
# Total cell count, monitored at day 4 (FIG. 9G) and day 7 (FIG. 9H), was increased following stimulation of anti-BCMA CAR+ T cells with beads from a 50 μg/mL BCMA-conjugated bead composition, but not 5 μg/mL BCMA-conjugated bead composition, compared to the cells present at the time of initiation of the incubation (dashed line).
# To further assess proliferation, the cells containing anti-BCMA CAR-expressing T cells were labeled with the proliferation marker dye CELLTRACE VIOLET (CTV; ThermoFisher Scientific, Waltham Mass.) in accordance with the manufacturer's protocol prior to incubation with the BCMA-conjugated beads. Proliferation was assessed by dye dilution using flow cytometry on cells that were stimulated with beads from the 50 μg/mL BCMA-conjugated bead composition.
# anti-BCMA CAR+ T cells [4] = test: Expansion of EGFRt+ cells after BCMA-conjugated bead stimulation; assay type: cell-based, human; details: 5 μM lenalidomide
# Experimental: as §1
# Four days and seven days after addition of BCMA-conjugated beads, the incubated cells were stained with CD4 or CD8 and with an anti-EGFR antibody to determine the percentage of cells positive for EGFRt as a surrogate for CAR+ T cells. At the time of plating, 26% of the CD4+ cells expressed anti-BCMA CAR and 39% of the CD8+ cells expressed anti-BCMA CAR as determined by staining with BCMA-Fc. The percent of EGFRt+CD4+ T cells increased from about 26% at the initiation of the incubation to greater than 40% by day 4 (FIG. 9J) and greater than 60% by day 7 (FIG. 9K) when the cells were incubated in the presence of beads from a 50 μg/mL BCMA-conjugated bead composition. […]
# RPMI-8226 target cells [5] = test: Cytolytic activity and IFN-gamma against target cells after bead incubation; assay type: cell-based
# Experimental: Cytolytic activity of CAR+ T cells after incubation with BCMA-conjugated beads was assessed by incubation with the BCMA-expressing target cell line RPMI-8226, which is a BCMA+ multiple myeloma cell line. After seven days of incubation of anti-BCMA CAR+ T cells with BCMA-conjugated beads (5 μg/ml or 50 μg/ml) in the presence or absence of lenalidomide, the beads were removed from the cultures and the cells were plated with the RPMI-8226 target cells at a ratio of effector cells to target cells of 3:1 or 1:1 in the further presence or absence of 5 μM lenalidomide. To perform the cytolytic assay, the target RPMI-8226 cells were labeled with NucLight Red (NLR) to permit tracking of target cells by microscopy. Cytolytic activity was assessed by measuring the loss of viable target cells over a period of four days, as determined by red fluorescent signal (using the INCUCYTE® Live Cell Analysis System, Essen Bioscience). The number of viable cells was normalized to cells at day 0 prior to incubation with the RPMI-8226 target cells.
# In a further exemplary study, anti-BCMA CAR+ T cells were untreated, or were incubated for 24 hours or for seven days with beads (diameter about 4.5 μm) from a 50 μg/mL BCMA-conjugated bead composition generated as described in Example 1 at a ratio of beads to cells of 1:1. The anti-BCMA CAR T+ cells were removed from the cultures and incubated with RPMI-8226 target cells at a 0.3:1 or 1:1 effector cell to target cell ratio. To assess cytokine response to the target cells after incubation with BCMA-conjugated beads, IFN gamma levels were measured in the supernatant.
# RPMI-8226 = test: Serial restimulation with BCMA-conjugated beads, then cytolytic activity; assay type: cell-based
# Experimental: Anti-BCMA CAR T cell compositions were generated from three different donors, each containing T cells expressing the same anti-BCMA CAR, thawed, and were incubated for seven days with beads (diameter about 4.5 μm) from a 50 μg/mL BCMA-conjugated bead composition generated as described in Example 1 at a 1:1 ratio of beads to cells. The incubation was carried out in the presence of 5 μM lenalidomide or in the absence of lenalidomide (vehicle control). Cells were harvested after 7 days and replated for three further rounds up to 28 days, each round involving resetting to initial seeding density and incubating for an additional 7 days in the presence of the same concentration of lenalidomide.
# At each reset after the pretreatment, cytolytic activity was assessed by incubation with the BCMA-expressing target cell line RPMI-8226 (labeled with NucLight Red (NLR)) at an effector to target cell (E:T) ratio of 1:1 in the further presence of or absence of lenalidomide. Cytolytic activity was assessed by measuring the loss of viable target cells over a period of up to 80-150 hours, as determined by red fluorescent signal (using the IncuCyte® Live Cell Analysis System, Essen Bioscience). Cells from each condition were plated in triplicate. The % cell killing compared to vehicle only control (set at 100%) was determined.
# Anti-BCMA CAR-T cells = test: Phenotype of anti-BCMA CAR T cells stimulated 7 days on BCMA beads with or without lenalidomide; assay type: cell-based, human
# Experimental: (§2) Anti-BCMA CAR-T cells, generated from samples from representative healthy donors or multiple myeloma patient derived material, and cultured with 50 μg/mL BCMA-Fc conjugated beads (generated as described in Example 1) at a ratio of 1:1 bead:CAR+ T cell for 7 days, in the presence of […] lenalidomide or a vehicle control. Expression of CD25, PD-1, Tim3 and Lag3 on CAR T cells (using an antibody for surrogate CAR marker) cultured under the different conditions then was assessed by flow cytometry.
# RPMI-8226 target cells [6] = test: Cytolytic activity and cytokine production of bead-prestimulated CAR-T cells on target cells; assay type: cell-based
# Experimental: as §2
# Specifically, for pretreated cells in which pretreatment had been conducted in the presence of lenalidomide, the cells were cultured with the target cells in the presence of lenalidomide; likewise, for pretreated cells in which pretreatment had been conducted in the presence of vehicle, cells were cultured with the target cells in the presence of vehicle. Following the co-culture, cytolytic activity was assessed by measuring the loss of viable target cells over a period of seven days, as determined by red fluorescent signal. Percentage killing was normalized to anti-BCMA CAR T cells prestimulated on beads in the presence of vehicle. Cytokine production was assessed by ELISA from supernatant following culture with target cells for 24 hours. Experiments were performed twice in 3 donors. […]
# anti-BCMA CAR T cells [7] = test: Cytokine production after 24 hours BCMA bead stimulation with or without lenalidomide; assay type: cell-based, human
# Experimental: In another study, recombinant human BCMA-conjugated beads were used to stimulate CAR T cells at various concentrations to titrate the magnitude of stimulation, either low ([…]), medium ([…]), and high (200 μg/mL) stimulation. […] Cells were stimulated with BCMA conjugated beads for 24 hours in the presence of 0.1 μM or 1.0 μM lenalidomide, or vehicle control. A protein transport inhibitor was added in the final hours of incubation, and cells were stained for intracellular IL-2, IFN-γ, and TNF-α.
# [8] = tested on: Healthy donor-or patient-derived CART cells; test: Cytokine production on BCMA or BCMA/PD-L1 conjugated beads; assay type: cell-based, human; details: 1 μM, in the presence of PD-L1; versus vehicle
# Experimental: In another study, cells were cultured in the presence of BCMA beads generated as described in Example 1, with or without additional conjugation of human recombinant PD-L1-Fc. Healthy donor-or patient-derived CART cells were stimulated in the presence of BCMA-conjugated beads or BCMA/PD-L1 conjugated beads for 24 hours in the presence of 1 μM lenalidomide. Cytokine production was measured in the supernatant. […] The results were consistent with a conclusion that anti-BCMA CAR-T cytokine production following incubation with BCMA-conjugated beads was increased by lenalidomide in the presence of PD-L1-mediated inhibition.
# [9] = medium stimulation (50 μg BCMA beads), 24 hours, 1 μM
compound,measurement,setting,value
Nc1cccc2c1CN(C1CCC(=O)NC1=O)C2=O (stereo not shown) [lenalidomide],proliferative capacity of T cells (CTV),"anti-BCMA CAR+ T cells [1]; 5 μM, three days with 200 μg BCMA beads at 1:1, versus vehicle",increased the proliferative capacity of T cells
same,surface expression of CD25 in CD4+ and CD8+ T cells,anti-BCMA CAR+ T cells [1]; lenalidomide present during BCMA bead or anti-CD3 stimulation,further increased the extent of surface expression of CD25
same,cytokine (IL-2) production,"anti-BCMA CAR T cells [2]; 1 μM or 5 μM, 200 or 5 μg/mL beads",increased cytokine production in the presence of both the high and low antigen stimulation
same,BCMA-induced CAR+ T cell cytokine production,"anti-BCMA CAR T cells [2]; 5 μM lenalidomide, 24 hours",increased BCMA-induced CAR+ T cell cytokine production
same,proliferation (cell count),"anti-BCMA CAR+ T cells [3]; 50 ug beads, day 7",small increase in proliferation
same,proliferation as assessed by CTV dilution,"anti-BCMA CAR+ T cells [3]; 50 μg/mL beads, day 4 but not day 7",slight delay in proliferation
same,extent of CAR+ T cell expansion,anti-BCMA CAR+ T cells [4],did not substantially impact the extent of CAR+ T cell expansion
same,target cell viability,"RPMI-8226 target cells [5]; RPMI 8226 cells cultured in the presence of lenalidomide, no T cells",did not directly influence target cell viability
same,cytolytic activity of the CAR+ T cells,RPMI-8226 target cells [5]; lenalidomide during the seven day bead incubation prior to the killing assay,increased cytolytic activity of the CAR+ T cells
same,killing activity,RPMI-8226 target cells [5]; lenalidomide present during the cell killing assay,did not substantially affect killing activity
same,killing efficacy,"RPMI-8226; further donor (FIG. 10B), all time points",increased killing efficacy
same,cytolytic activity,"RPMI-8226; preincubated with 5 μM lenalidomide 7 or 14 days, exemplary donor",exhibited greater cytolytic activity
same,killing efficacy,RPMI-8226; preincubated with lenalidomide 14 or 21 days compared to day 7,overall decrease in killing efficacy
same,CAR+ viability,"Anti-BCMA CAR-T cells; 1 μM, 7 days on 50 μg/mL BCMA beads, 3 healthy donors",significantly increased CAR+ viability
same,surface CD25 expression (MFI),"Anti-BCMA CAR-T cells; 1 μM, 7 days on BCMA beads",increasing CD25 expression
same,surface PD-1 expression (MFI),"Anti-BCMA CAR-T cells; 1 μM, 7 days on BCMA beads",reduced PD-1 expression
same,total cell count,"Anti-BCMA CAR-T cells; 1 μM, 7 days on BCMA beads",did not alter the total cell count
same,percentage positive for Lag3 expression,Anti-BCMA CAR-T cells; CD4+ and CD8+ CAR+ populations,increased
same,percentage of PD-1+ cells,Anti-BCMA CAR-T cells; CD4+ population,decrease in the percentage of PD-1+ cells
same,surface expression of Tim3,Anti-BCMA CAR-T cells; CD8+ population,increased the surface expression of Tim3
same,percentage CAR+,Anti-BCMA CAR-T cells; vehicle- versus lenalidomide-treated,no significant differences
same,cytokine production,RPMI-8226 target cells [6]; 1 μM lenalidomide during prestimulation versus vehicle,trend toward increased cytokine production
same,cytolytic function,RPMI-8226 target cells [6]; 1 μM lenalidomide during the prestimulation period,preserved cytolytic function
same,percentage of IFN-γ+ and TNF-α+ intracellular staining,"anti-BCMA CAR T cells [7]; 0.1 μM or 1.0 μM, all stimulation levels, CD4+ and CD8+",increased the percentage
same,percentage of IL-2+ CAR+ T cells,anti-BCMA CAR T cells [7]; 5-μg stimulation,increasing the percentage
same,percentage of IL-2+ CAR+ T cells,anti-BCMA CAR T cells [7]; 50-μg and 200-μg stimulation,decreasing the percentage
same,CAR T cytokine production,anti-BCMA CAR T cells [7]; absence of stimulation,had no effect on CAR T cytokine production
same,increase in IL-2 concentration compared with vehicle control,anti-BCMA CAR T cells [7]; [9],200%
same,increase in TNF-α concentration compared with vehicle control,anti-BCMA CAR T cells [7]; [9],200%
same,IFN-γ concentration compared with vehicle control,"anti-BCMA CAR T cells [7]; medium stimulation, 24 hours",donor-dependent increases
same,secreted cytokine levels,[8],potentiated secreted cytokine levels
